Results reported in patent US9126999B2, “Tetrahydropyrazolopyrimidine compounds” (EISAI R&D MANAGEMENT CO., LTD., priority 2012, dated 2015).
Where two headings read alike, the source gives them in different places.

Molecular target: T1, Human TLR8 (Homo sapiens, UniProt Q9NR97)
T1 construct: host or cells: HEK-293 stably expressing human TLR8, then transfected with pNiFty2(NF-kappaB)-luciferase
T1 sequence (Q9NR97 27-1041): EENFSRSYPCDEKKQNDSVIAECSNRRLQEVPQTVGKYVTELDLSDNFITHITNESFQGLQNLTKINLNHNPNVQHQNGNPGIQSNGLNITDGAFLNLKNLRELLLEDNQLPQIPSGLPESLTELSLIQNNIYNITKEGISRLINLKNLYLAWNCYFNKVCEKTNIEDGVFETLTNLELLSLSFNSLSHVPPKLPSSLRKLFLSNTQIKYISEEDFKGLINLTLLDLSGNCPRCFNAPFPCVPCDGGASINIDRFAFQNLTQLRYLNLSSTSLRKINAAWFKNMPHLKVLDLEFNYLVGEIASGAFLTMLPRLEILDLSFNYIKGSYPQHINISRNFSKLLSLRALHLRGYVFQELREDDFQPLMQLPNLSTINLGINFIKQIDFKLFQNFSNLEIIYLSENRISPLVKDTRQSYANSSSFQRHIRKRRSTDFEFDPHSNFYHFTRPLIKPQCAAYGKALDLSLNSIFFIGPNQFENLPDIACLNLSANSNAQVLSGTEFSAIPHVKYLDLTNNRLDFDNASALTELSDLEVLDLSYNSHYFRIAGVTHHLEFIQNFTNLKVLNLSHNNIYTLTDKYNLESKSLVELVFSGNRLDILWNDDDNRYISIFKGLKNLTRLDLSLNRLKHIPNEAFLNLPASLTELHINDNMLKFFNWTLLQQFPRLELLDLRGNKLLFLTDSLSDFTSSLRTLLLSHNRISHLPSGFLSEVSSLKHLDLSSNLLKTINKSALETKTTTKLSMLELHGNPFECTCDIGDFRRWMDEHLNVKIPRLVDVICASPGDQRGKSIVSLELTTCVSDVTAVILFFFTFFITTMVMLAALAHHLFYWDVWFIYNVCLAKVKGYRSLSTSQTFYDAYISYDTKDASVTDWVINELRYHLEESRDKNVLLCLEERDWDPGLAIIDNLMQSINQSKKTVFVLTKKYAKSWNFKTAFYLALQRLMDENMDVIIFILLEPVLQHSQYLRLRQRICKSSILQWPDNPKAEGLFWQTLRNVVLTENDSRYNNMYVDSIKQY
Test: HEK-293 NF-kappaB luciferase reporter assay, CL097 stimulus
Assay type: cell-based
From the text: In vitro pharmacology: HEK-293 cells (ATCC) were engineered to stably express a NF-kappaB transcription factor inducible E-selectin (ELAM-1) luciferase reporter derived from the plasmid pGL3 (Promega) containing base pairs −2241 bp to −254 bp from the promoter of the human E-selectin gene (Accession No. NM_000450). These cells were then subsequently engineered to stably and individually express human TLR4, TLR7 or TLR9 full-length ORF cDNAs. Human TLR4 cDNA (Accession No. NM_138554) was cloned into pcDNA 3.0 expression vector (Invitrogen). TLR4 transfected cells were also engineered to express human MD-2 co-receptor [MD-2 cDNA (Accession No. NM_015364) was cloned into the pEF-BOS vector] and were supplemented with 10 nM soluble CD14 (R&D Systems) in the media to optimize LPS responsiveness. Human TLR9 cDNA (Accession No. NM_017442) was cloned into the pBluescript II KS vector (Agilent). Human TLR7 cDNA (Accession No. NM_016562) was obtained from OriGene. HEK-293 cells stably expressing human TLR8 (Accession No. NM_138636) or mouse TLR7 (Accession No. NM_133211) were purchased from InvivoGen and were then stably transfected with pNiFty2(NF-kappaB)-luciferase reporter plasmid (InvivoGen). Each cell type was plated in Dulbecco's modified Eagle's medium (DMEM) containing 10% fetal bovine serum (FBS) at a density of 2.22×10^5 cells/ml into a 384-well plate and incubated for 2 days at 37° C., 5% CO2. Varying concentrations of antagonist compounds were then added. Cells were then incubated for another 30 minutes before adding the appropriate TLR agonist as follows (final concentrations indicated): lipopolysaccharide (LPS; Sigma) at 10 ng/ml for TLR4, CL097 (InvivoGen) at 3 ug/ml for human TLR7 and TLR8 and mouse TLR7, and CpG-2006-2A [sequence: […] (SEQ ID NO: 1) with phosphorothioate backbone, synthesized by Sigma-Aldrich] at 0.6 uM for TLR9.

[1] = human TLR8 in the HEK-293 assay format, read-out: HEK/TLR8 IC50

Structure (SMILES)	IC50 [1] [nM]	IC50 (HEK-293, ligand CL097, analyte NFkB-luciferase, read-out: IC50) [nM]
Cc1nn(C)cc1[C@@H]1C[C@H](C(F)(F)F)n2nc(-c3ccc(NC(N)=O)cc3)cc2N1 [ER-894595]	320	
COc1ccc([C@@H]2C[C@H](C(F)(F)F)n3nc(-c4ccc(C(=O)N5CCNCC5)cc4)cc3N2)cc1OC [ER-892887, (4-((5S,7R)-5-(3,4-dimethoxyphenyl)-7-(trifluoromethyl)-4,5,6,7-tetrahydropyrazolo[1,5-a]pyrimidin-2-yl)phenyl)(piperazin-1-yl)methanone]		80
Cc1nn(C)cc1[C@H]1C[C@@H](C(F)(F)F)n2nc(-c3ccc(NC(N)=O)cc3)cc2N1 [ER-894596]	540	
COc1ccc([C@@H]2C[C@H](C(F)(F)F)n3nc(-c4ccncc4)cc3N2)cc1OC [ER-885454]	280	
